# Assay results from patent US9247759B2, “Identification of human T2R receptors that respond to bitter compounds that elicit the bitter taste in compositions, and the use thereof in assays to identify compounds that inhibit (block) bitter taste in compositions and use thereof” (SENOMYX, INC., priority 2007, dated 2016).
# Like-named read-outs stand apart in the source and are kept apart here.
# Biological target: hT2R8 (Homo sapiens (Human), UniProt Q9NYW2)
# Test: hT2R8 antagonist high-throughput FLIPR assay, stable cell line with G16g44, agonist andrographolide
# Format: cell-based
# In short: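 Antagonist screen: compounds co-applied with agonist andrographolide at 200 μM, a dose giving 70–80% of maximal hT2R8 activation. Fluorescence measured by FLIPR in a stable HEK293 line expressing both hT2R8 and the promiscuous G16g44 protein.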
# [1] = table after Example 10-97, read-out: hT2R8 IC50
# [2] = unit uM, read-out: IC50 on hT2R08 bitter receptor
# [3] = read-out: IC50 on hT2R8 bitter receptor
# [4] = table after Example 12-37, read-out: hT2R8 IC50
# Sequence of hT2R8 (Q9NYW2 whole entry): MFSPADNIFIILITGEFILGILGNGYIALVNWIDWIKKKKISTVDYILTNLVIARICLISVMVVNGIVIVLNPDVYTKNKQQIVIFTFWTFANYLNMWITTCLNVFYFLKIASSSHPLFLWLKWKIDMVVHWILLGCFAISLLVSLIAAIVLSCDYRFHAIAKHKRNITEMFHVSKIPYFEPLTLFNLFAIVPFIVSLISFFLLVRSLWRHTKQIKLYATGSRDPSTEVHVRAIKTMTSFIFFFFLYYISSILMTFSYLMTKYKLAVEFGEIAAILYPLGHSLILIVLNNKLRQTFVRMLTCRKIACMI
SMILES,IC50 [1] [µM],IC50 [3] [µM],further results
"COCCOc1ccccc1CN1CC(=O)N(c2cnn(Cc3c(C)noc3C)c2)C1=O [Example 10-16, 3-(1-((3,5-dimethylisoxazol-4-yl)methyl)-1H-pyrazol-4-yl)-1-(2-(2-methoxyethoxy)benzyl)imidazolidine-2,4-dione]",0.131,–,IC50 [2]: 0.1 µM
"COc1cccc(C(=O)Nc2cnn(Cc3c(C)noc3C)c2)c1O [Example 4-71, N-(1-((3,5-dimethylisoxazol-4-yl)methyl)-1H-pyrazol-4-yl)-2-hydroxy-3-methoxybenzamide]",–,–,"IC50 (Table A, read-out: hT2R8 IC50): 2.9 µM"
"Cc1noc(C)c1Cn1cc(-n2c(=O)n(C)n(C)c2=O)cn1 [Example 10-69, 4-(1-((3,5-dimethylisoxazol-4-yl)methyl)-1H-pyrazol-4-yl)-1,2-dimethyl-1,2,4-triazolidine-3,5-dione]",0.707,0.6,–
"Cc1noc(C)c1Cn1cc(N2C(=O)NC(CC(=O)NCc3ccccc3)C2=O)cn1 (stereo not drawn) [Example 10-49, N-benzyl-2-(1-(1-((3,5-dimethylisoxazol-4-yl)methyl)-1H-pyrazol-4-yl)-2,5-dioxoimidazolidin-4-yl)acetamide]",1.33,1.3,–
"Cc1noc(C)c1Cn1cc(N2C(=O)NC(C)C2=O)cn1 (stereo not drawn) [Example 10-41, 3-(1-((3,5-dimethylisoxazol-4-yl)methyl)-1H-pyrazol-4-yl)-5-methylimidazolidine-2,4-dione]",1.28,1.3,–
"Cc1ccc(CN2C(=O)N(c3cnn(Cc4c(C)noc4C)c3)C(=O)C2(C)C)cc1C [Example 12-83, 1-(3,4-dimethylbenzyl)-3-(1-((3,5-dimethylisoxazol-4-yl)methyl)-1H-pyrazol-4-yl)-5,5-dimethylimidazolidine-2,4-dione]",–,–,IC50 [4]: 1.22 µM
"COCCOc1cccc(CN2C(=O)N(c3cnn(Cc4c(C)noc4C)c3)C(=O)C2(C)C)c1 [Example 12-80, 3-(1-((3,5-dimethylisoxazol-4-yl)methyl)-1H-pyrazol-4-yl)-1-(3-(2-methoxyethoxy)benzyl)-5,5-dimethylimidazolidine-2,4-dione]",–,–,IC50 [4]: 0.71 µM
"Cc1cc(CN2C(=O)N(c3cnn(Cc4c(C)noc4C)c3)C(=O)C2(C)C)n(C)n1 [Example 12-26, 1-((1,3-dimethyl-1H-pyrazol-5-yl)methyl)-3-(1-((3,5-dimethylisoxazol-4-yl)methyl)-1H-pyrazol-4-yl)-5,5-dimethylimidazolidine-2,4-dione]",–,0.23,–
"Cc1noc(C)c1Cn1cc(N2C(=O)CN(CC3CCCCC3)C2=O)cn1 [Example 10-74, 1-(cyclohexylmethyl)-3-(1-((3,5-dimethylisoxazol-4-yl)methyl)-1H-pyrazol-4-yl)imidazolidine-2,4-dione]",0.276,0.28,–
"Cc1noc(C)c1Cn1cc(N2C(=O)N[C@H](Cc3ccccc3)C2=O)cn1 [Example 10-4, (R)-5-benzyl-3-(1-((3,5-dimethylisoxazol-4-yl)methyl)-1H-pyrazol-4-yl)imidazolidine-2,4-dione]",0.112,0.11,–
"COc1ccc(CN2CC(=O)N(c3cnn(Cc4c(C)noc4C)c3)C2=O)cc1O [Example 10-13, 3-(1-((3,5-dimethylisoxazol-4-yl)methyl)-1H-pyrazol-4-yl)-1-(3-hydroxy-4-methoxybenzyl)imidazolidine-2,4-dione]",0.087,–,IC50 [2]: 0.1 µM
"Cc1noc(C)c1Cn1cc(-n2c(=O)[nH]c(=O)n(Cc3ccccc3)c2=O)cn1 [Example 9-9, 1-benzyl-3-(1-((3,5-dimethylisoxazol-4-yl)methyl)-1H-pyrazol-4-yl)-1,3,5-triazinane-2,4,6-trione]",1.56,1.14,–
"Cc1cc2cc(C(=O)Nc3cnn(Cc4c(C)noc4C)c3)ccc2o1 [Example 4-75, N-(1-((3,5-dimethylisoxazol-4-yl)methyl)-1H-pyrazol-4-yl)-2-methylbenzofuran-5-carboxamide]",–,–,"IC50 (Table A, read-out: hT2R8 IC50): 2.1 µM"
"Cc1noc(C)c1Cn1cc(NC(=O)[C@H](C)c2ccccc2)cn1 [Example 4-42, (R)-N-(1-((3,5-dimethylisoxazol-4-yl)methyl)-1H-pyrazol-4-yl)-2-phenylpropanamide]",–,–,"IC50 (Table A, read-out: hT2R8 IC50): 3.72 µM"
"Cc1noc(C)c1Cn1cc(N2C(=O)N(Cc3ccncc3)C(C)(C)C2=O)cn1 [Example 12-52, 3-(1-((3,5-dimethylisoxazol-4-yl)methyl)-1H-pyrazol-4-yl)-5,5-dimethyl-1-(pyridin-4-ylmethyl)imidazolidine-2,4-dione]",–,–,IC50 [4]: 0.19 µM
"COc1cc2c(cc1C(=O)Nc1cnn(Cc3c(C)noc3C)c1)OCCO2 [Example 4-95, N-(1-((3,5-dimethylisoxazol-4-yl)methyl)-1H-pyrazol-4-yl)-7-methoxy-2,3-dihydrobenzo[b][1,4]dioxine-6-carboxamide]",–,0.7,–
"COc1ccc(CCN2CC(=O)N(c3cnn(Cc4c(C)noc4C)c3)C2=O)cc1 [Example 10-79, 3-(1-((3,5-dimethylisoxazol-4-yl)methyl)-1H-pyrazol-4-yl)-1-(4-methoxyphenethyl)imidazolidine-2,4-dione]",0.044,0.04,–
"Cc1noc(C)c1Cn1cc(N2C(=O)N(Cc3ccc(C#N)cc3)C(C)(C)C2=O)cn1 [Example 12-79, 4-((3-(1-((3,5-dimethylisoxazol-4-yl)methyl)-1H-pyrazol-4-yl)-5,5-dimethyl-2,4-dioxoimidazolidin-1-yl)methyl)benzonitrile]",–,–,IC50 [4]: 0.05 µM
"Cc1noc(C)c1Cn1cc(N2C(=O)N(Cc3cccc(C#N)c3)C(C)(C)C2=O)cn1 [Example 12-42, 3-((3-(1-((3,5-dimethylisoxazol-4-yl)methyl)-1H-pyrazol-4-yl)-5,5-dimethyl-2,4-dioxoimidazolidin-1-yl)methyl)benzonitrile]",–,–,IC50 [4]: 0.09 µM
"Cc1noc(C)c1Cn1cc(NC(=O)c2cccc3nccnc23)cn1 [Example 4-76, N-(1-((3,5-dimethylisoxazol-4-yl)methyl)-1H-pyrazol-4-yl)quinoxaline-5-carboxamide]",–,–,"IC50 (Table A, read-out: hT2R8 IC50): 1.7 µM"
"Cc1noc(C)c1Cn1cc(N2C(=O)N(Cc3cccc(O)n3)C(C)(C)C2=O)cn1 [Example 12-72, 3-(1-((3,5-dimethylisoxazol-4-yl)methyl)-1H-pyrazol-4-yl)-1-((6-hydroxypyridin-2-yl)methyl)-5,5-dimethylimidazolidine-2,4-dione]",–,–,IC50 [4]: 0.44 µM
"Cc1noc(C)c1Cn1cc(N2C(=O)CN(Cc3cccc(C=O)c3)C2=O)cn1 [Example 10-24, 3-((3-(1-((3,5-dimethylisoxazol-4-yl)methyl)-1H-pyrazol-4-yl)-2,4-dioxoimidazolidin-1-yl)methyl)benzaldehyde]",0.201,–,IC50 [2]: 0.2 µM
"Cc1noc(C)c1Cn1cc(N2C(=O)N(Cc3cccc(C(=O)O)c3)C(C)(C)C2=O)cn1 [Example 12-73, 3-((3-(1-((3,5-dimethylisoxazol-4-yl)methyl)-1H-pyrazol-4-yl)-5,5-dimethyl-2,4-dioxoimidazolidin-1-yl)methyl)benzoic acid]",–,–,IC50 [4]: 0.46 µM
"COc1ccc(C(=O)Nc2cnn(Cc3c(C)noc3C)c2)cc1OC [Example 4-21, N-(1-((3,5-dimethylisoxazol-4-yl)methyl)-1H-pyrazol-4-yl)-3,4-dimethoxybenzamide]",–,–,"IC50 (Table A, read-out: hT2R8 IC50): 0.56 µM"
"Cc1noc(C)c1Cn1cnc(NC(=O)c2ccc3c(c2)OCO3)c1 [Example 10-40, N-(1-((3,5-dimethylisoxazol-4-yl)methyl)-1H-imidazol-4-yl)benzo[d][1,3]dioxole-5-carboxamide]",–,12.1,–
Cc1noc(C)c1Cn1cc(N2CCCN(Cc3ccccc3)C2=O)cn1 [Example 9-5],3.43,–,–
